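A five-concentration, 48-hour dose response in 96-well plates underlies each endpoint, interpolated linearly between surrounding concentrations. GI50 marks 50% less growth.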 Active and inactive are the calls of the source. Rule as the data show it: active = GI50 up to about 1.1 µM and inactive = higher.
Assays:
Assay in all cases: DTP human tumour cell line panel, 48 h
MCF7 = test system: MCF7
NCI/ADR-RES = test system: NCI/ADR-RES
UACC-257 = test system: UACC-257
NCI-H522 = test system: NCI-H522
OVCAR-8 = test system: OVCAR-8
HOP-92 = test system: HOP-92
OVCAR-4 = test system: OVCAR-4
PC-3 = test system: PC-3
RPMI-8226 = test system: RPMI-8226
CCRF-CEM = test system: CCRF-CEM
T47D = test system: T47D
SN12C = test system: SN12C
ACHN = test system: ACHN
UO-31 = test system: UO-31
U-251 = test system: U-251
HCC 2998 = test system: HCC 2998
A549 = test system: A549
COLO 205 = test system: COLO 205
UACC-62 = test system: UACC-62
Hs-578T = test system: Hs-578T
Malme-3M = test system: Malme-3M
LOX IMVI = test system: LOX IMVI
MDA-MB-231 = test system: MDA-MB-231
SF-268 = test system: SF-268
HOP-62 = test system: HOP-62
TK-10 = test system: TK-10
SK-MEL-2 = test system: SK-MEL-2
NCI-H23 = test system: NCI-H23
K562 = test system: K562
OVCAR-5 = test system: OVCAR-5
EKVX = test system: EKVX
SW-620 = test system: SW-620
SK-MEL-5 = test system: SK-MEL-5
HL-60 = test system: HL-60
HCT-15 = test system: HCT-15
OVCAR-3 = test system: OVCAR-3
RXF 393 = test system: RXF 393
IGROV-1 = test system: IGROV-1
M14 = test system: M14
NCI-H460 = test system: NCI-H460
MOLT-4 = test system: MOLT-4
786-0 = test system: 786-0
MDA-MB-435 = test system: MDA-MB-435
SK-MEL-28 = test system: SK-MEL-28
SNB-75 = test system: SNB-75
NCI-H226 = test system: NCI-H226
KM12 = test system: KM12
HT-29 = test system: HT-29
SK-OV-3 = test system: SK-OV-3
CAKI-1 = test system: CAKI-1
A498 = test system: A498
SNB-19 = test system: SNB-19
MDA-N = test system: MDA-N
SR = test system: SR
SF-295 = test system: SF-295
HCT-116 = test system: HCT-116
SF-539 = test system: SF-539
DU-145 = test system: DU-145

Measured: GI50

Cc1ccc([N+](=O)[O-])c2c(NCCC[N+](C)(C)[O-])ccnc12
> 10 µM: HCT-15
inactive: MCF7 14.9 µM | NCI/ADR-RES > 100 µM | UACC-257 29.4 µM | NCI-H522 15 µM | OVCAR-8 58.9 µM | HOP-92 50.9 µM | OVCAR-4 20.3 µM | PC-3 50.8 µM | RPMI-8226 31 µM | CCRF-CEM 44.6 µM | T47D 35.1 µM | SN12C > 100 µM | ACHN 61.5 µM | UO-31 78.9 µM | U-251 83.6 µM | HCC 2998 23.4 µM | A549 33.2 µM | COLO 205 34 µM | UACC-62 > 10 µM | Hs-578T 48.8 µM | Malme-3M 44 µM | LOX IMVI 49.5 µM | MDA-MB-231 > 100 µM | SF-268 > 100 µM | HOP-62 29.3 µM | TK-10 > 100 µM | SK-MEL-2 52.6 µM | NCI-H23 33.4 µM | K562 27.5 µM | OVCAR-5 28.2 µM | EKVX > 100 µM | SW-620 34.1 µM | SK-MEL-5 12.2 µM | HL-60 31.3 µM | OVCAR-3 33.9 µM | RXF 393 34.4 µM | IGROV-1 20.6 µM | M14 40.3 µM | NCI-H460 21.3 µM | MOLT-4 34.8 µM | 786-0 > 100 µM | MDA-MB-435 > 100 µM | SK-MEL-28 > 100 µM | SNB-75 55.7 µM | NCI-H226 98.9 µM | KM12 40.1 µM | HT-29 34.8 µM | SK-OV-3 52 µM | CAKI-1 53.6 µM | A498 32.2 µM | SNB-19 89.5 µM | MDA-N > 100 µM | SR 48.5 µM | SF-295 28.8 µM | HCT-116 38.9 µM | SF-539 > 100 µM | DU-145 57.8 µM

N#Cc1sc2c(c1OC(=O)c1ccc(Cl)cc1)c(=O)n(-c1ccccc1)c(=S)n2-c1ccccc1
15.8 µM: HCT-15
inactive: MCF7 23.1 µM | NCI/ADR-RES 23.3 µM | UACC-257 27.3 µM | OVCAR-8 18.1 µM | HOP-92 18.5 µM | OVCAR-4 23.3 µM | PC-3 21.7 µM | RPMI-8226 17.7 µM | CCRF-CEM 4.37 µM | T47D 24.4 µM | SN12C 21 µM | ACHN 28.4 µM | U-251 11.1 µM | HCC 2998 21.5 µM | A549 31.4 µM | COLO 205 18.5 µM | UACC-62 18.2 µM | Hs-578T 15.6 µM | Malme-3M 20.4 µM | LOX IMVI 17.1 µM | MDA-MB-231 32.4 µM | SF-268 23.3 µM | HOP-62 27.7 µM | TK-10 23.3 µM | NCI-H23 21.7 µM | K562 22 µM | OVCAR-5 25.8 µM | EKVX 21 µM | SW-620 21.2 µM | SK-MEL-5 17.1 µM | HL-60 19.4 µM | OVCAR-3 17.1 µM | RXF 393 19.7 µM | IGROV-1 16.7 µM | M14 20.4 µM | NCI-H460 16.4 µM | MOLT-4 42.3 µM | 786-0 20.5 µM | MDA-MB-435 20.6 µM | SK-MEL-28 16.9 µM | SNB-75 40.8 µM | NCI-H226 26.7 µM | KM12 14.9 µM | HT-29 22.4 µM | SK-OV-3 29.9 µM | CAKI-1 27.3 µM | A498 21.5 µM | SNB-19 21.9 µM | MDA-N 20.3 µM | SR 19.1 µM | SF-295 19.2 µM | HCT-116 15.4 µM | SF-539 20.8 µM | DU-145 25.8 µM
active: NCI-H522 0.504 µM

CC(C(=O)NCCNC(=O)CCC(=O)N(C)O)C(=O)NCCNC(=O)CCC(=O)N(C)O
inactive: MCF7 > 100 µM | NCI/ADR-RES > 100 µM | UACC-257 > 100 µM | NCI-H522 > 100 µM | OVCAR-8 > 100 µM | HOP-92 > 100 µM | OVCAR-4 > 100 µM | PC-3 > 100 µM | RPMI-8226 > 100 µM | CCRF-CEM > 100 µM | T47D > 100 µM | ACHN > 100 µM | UO-31 > 100 µM | U-251 > 100 µM | HCC 2998 > 100 µM | A549 > 100 µM | COLO 205 > 100 µM | UACC-62 > 100 µM | Hs-578T > 100 µM | Malme-3M > 100 µM | LOX IMVI > 100 µM | MDA-MB-231 > 100 µM | SF-268 > 100 µM | HOP-62 > 100 µM | TK-10 > 100 µM | SK-MEL-2 > 100 µM | NCI-H23 > 100 µM | K562 > 100 µM | OVCAR-5 > 100 µM | EKVX > 100 µM | SW-620 > 100 µM | SK-MEL-5 97.9 µM | HL-60 > 100 µM | OVCAR-3 > 100 µM | RXF 393 > 100 µM | IGROV-1 > 100 µM | M14 > 100 µM | NCI-H460 > 100 µM | MOLT-4 > 100 µM | MDA-MB-435 > 100 µM | SK-MEL-28 5.71 µM | SNB-75 > 100 µM | NCI-H226 > 100 µM | KM12 > 100 µM | HT-29 > 100 µM | SK-OV-3 > 100 µM | CAKI-1 > 100 µM | A498 > 100 µM | SNB-19 > 100 µM | MDA-N > 100 µM | SR > 100 µM | SF-295 > 100 µM | DU-145 > 100 µM
> 100 µM: HCT-15

CN(C)c1ccc(C2CC(=O)CC(c3ccc(N(C)C)cc3)C23C(=O)NC(=S)NC3=O)cc1 (stereo not given)
> 100 µM: HCT-15
inactive: MCF7 86.1 µM | NCI/ADR-RES > 100 µM | UACC-257 > 100 µM | HOP-92 > 100 µM | OVCAR-4 > 100 µM | PC-3 > 100 µM | RPMI-8226 > 100 µM | CCRF-CEM > 100 µM | T47D > 100 µM | SN12C > 100 µM | ACHN > 100 µM | UO-31 > 100 µM | U-251 30.6 µM | HCC 2998 99.3 µM | A549 > 100 µM | COLO 205 > 100 µM | UACC-62 > 100 µM | Hs-578T 30.2 µM | Malme-3M > 100 µM | LOX IMVI > 100 µM | MDA-MB-231 36 µM | SF-268 33.2 µM | HOP-62 18 µM | TK-10 > 100 µM | SK-MEL-2 38.8 µM | NCI-H23 91.2 µM | K562 > 100 µM | OVCAR-5 > 100 µM | EKVX 55.5 µM | SW-620 > 100 µM | SK-MEL-5 > 100 µM | HL-60 > 100 µM | OVCAR-3 > 100 µM | RXF 393 45.7 µM | M14 > 100 µM | NCI-H460 > 100 µM | MOLT-4 > 100 µM | 786-0 54.6 µM | MDA-MB-435 > 100 µM | SK-MEL-28 > 100 µM | SNB-75 14.6 µM | NCI-H226 > 100 µM | KM12 > 100 µM | HT-29 > 100 µM | SK-OV-3 > 100 µM | CAKI-1 > 100 µM | A498 > 100 µM | SNB-19 71.3 µM | MDA-N > 100 µM | SR > 100 µM | SF-295 57.9 µM | HCT-116 > 100 µM | SF-539 > 100 µM | DU-145 > 100 µM

CCN(CC)CCOc1ccc(N2C(=O)c3cccc4cc([N+](=O)[O-])cc(c34)C2=O)cc1
inactive: MCF7 3.56 µM | NCI/ADR-RES 16.8 µM | UACC-257 13.1 µM | NCI-H522 4.75 µM | OVCAR-8 10.9 µM | HOP-92 20 µM | OVCAR-4 16.3 µM | PC-3 6.73 µM | CCRF-CEM 4.23 µM | T47D 19.7 µM | SN12C 17.4 µM | ACHN 3.1 µM | UO-31 9.12 µM | U-251 10.8 µM | HCC 2998 11.6 µM | COLO 205 10 µM | Hs-578T 14.7 µM | Malme-3M 13.8 µM | LOX IMVI 3.88 µM | MDA-MB-231 18.8 µM | SF-268 10.9 µM | HOP-62 1.14 µM | TK-10 13.3 µM | SK-MEL-2 16.3 µM | NCI-H23 11.6 µM | OVCAR-5 2.88 µM | EKVX 16.3 µM | SW-620 7.48 µM | SK-MEL-5 12.1 µM | HL-60 11.8 µM | IGROV-1 7.08 µM | M14 12.4 µM | MOLT-4 1.67 µM | 786-0 4.76 µM | MDA-MB-435 11.5 µM | SK-MEL-28 12.5 µM | SNB-75 14.5 µM | NCI-H226 3.79 µM | KM12 12.5 µM | HT-29 4.91 µM | CAKI-1 11.5 µM | A498 9.62 µM | SNB-19 12.8 µM | MDA-N 14.6 µM | SF-295 6.55 µM | HCT-116 3.88 µM | SF-539 9.02 µM | DU-145 10.8 µM
active: A549 0.977 µM | NCI-H460 0.524 µM | SR 0.372 µM
6.64 µM: HCT-15

— ChEMBL document CHEMBL1201862, “PubChem BioAssay data set” (2004)
